Source: patent US20030166483A1, “Use of 3-iodine-2-propinyl-carbamates as antimicrobial active agent” (priority 2003, published 2003)

Assays:
Format in all cases: cell-based
[1] = system: dermatophytes, fungi producing mildew spots and material-damaging fungi; experiment: Fungistatic activity, overall result; details: by comparison with the reference preparation
Protocol: (§1) 1×1 cm prewashed and autoclaved test specimens of standard cotton cloth to DIN 53919 (WfK-Testgewebe GmbH, Adlerstr. 42, Krefeld) were placed in the test solutions for 15 minutes, removed under sterile conditions and dried for 14 h at room temperature. 0.1 ml inoculation suspensions of the test fungi mentioned above were inoculated into malt agar in a petri dish and, after the agar had solidified, 0.1 ml was spread over the agar surface with a spatula.
(§2) The test specimens impregnated with the test solutions were then placed on the agar surface under sterile conditions and the dishes were incubated for 7 days at 25° C. The inhibiting effect was then evaluated to the following scheme: […]

[2] = system: Aspergillus niger, ATCC 6275; experiment: Fungicidal activity by the DGHM germ carrier test; design: key: +: living culture; −: dead culture
Protocol: (§3) Candida albicans, ATCC 10231 (precultured on CaSo agar, 4 d/25° C.), Aspergillus niger, ATCC 6275 (precultured on malt agar, 8d/25° C.), Trichophyton mentagrophytes, ATCC 9533 (precultured on malt agar, 8d/25° C.), Cladosporium cladosporioides, DSM 62121 (precultured on malt agar, 8d/25° C.), Epicoccum nigrum, self-isolate (precultured on malt agar, 8d/25°).
(§4) The inocula were obtained by floating off the preculture plates with 0.05% Tween®80 and had the following germ contents:
(§5) The test was carried out under the Richtlinien für die Prüfung und Bewertung chemischer Desinfektionsverfahren (Guidelines for the Testing and Evaluation of Chemical Disinfection Processes) of the Deutsche Gesellschaft für Hygiene und Mikrobiologie (DGHM), Gustav Fischer Verlag, 1981:
(§6) 16 prewashed and autoclaved test specimens were placed in the above-mentioned inoculation suspensions of the test fungi and left therein for 15 minutes during which they were turned over several times. The test specimens thus contaminated were then transferred to empty Petri dishes where 10 ml of the test solutions were poured over them. After contact times of 60 and 120 minutes at 20° C., two of the test specimens were removed, briefly transferred to 10 ml of DGHM inactivator solution and then inoculated onto CaSo plates (Candida) or malt agar plates (other test fungi). Incubation lasted 7 days at 25° C. and was followed by qualitative evaluation, i.e. growth yes (+) or no (−).

[3] = system: Candida albicans, ATCC 10231; experiment: Fungicidal activity by the DGHM germ carrier test; design: key: +: living culture; −: dead culture
Protocol: as §3, §4, §5, §6

[4] = system: Epicoccum nigrum, self-isolate; experiment: Fungicidal activity by the DGHM germ carrier test; design: key: +: living culture; −: dead culture
Protocol: as §3, §4, §5, §6

[5] = system: Cladosporium cladosporioides, DSM 62121; experiment: Fungicidal activity by the DGHM germ carrier test; design: key: +: living culture; −: dead culture
Protocol: as §3, §4, §5, §6

[6] = system: Trichophyton mentagrophytes, ATCC 9533; experiment: Fungicidal activity by the DGHM germ carrier test; design: key: +: living culture; −: dead culture
Protocol: as §3, §4, §5, §6

[7] = system: Aspergillus niger, ATCC 6275; experiment: Fungistatic activity by the inhibition test; details: 7 days at 25° C.; for inhibiting effect evaluation: impregnated cotton specimens
Protocol: as §3, §4, §1, §2

[8] = system: Candida albicans, ATCC 10231; experiment: Fungistatic activity by the inhibition test; details: 7 days at 25° C.; for inhibiting effect evaluation: impregnated cotton specimens
Protocol: as §3, §4, §1, §2

[9] = system: Epicoccum nigrum, self-isolate; experiment: Fungistatic activity by the inhibition test; details: 7 days at 25° C.; for inhibiting effect evaluation: impregnated cotton specimens
Protocol: as §3, §4, §1, §2

[10] = system: Cladosporium cladosporioides, DSM 62121; experiment: Fungistatic activity by the inhibition test; details: 7 days at 25° C.; for inhibiting effect evaluation: impregnated cotton specimens
Protocol: as §3, §4, §1, §2

[11] = system: Trichophyton mentagrophytes, ATCC 9533; experiment: Fungistatic activity by the inhibition test; details: 7 days at 25° C.; for inhibiting effect evaluation: impregnated cotton specimens
Protocol: as §3, §4, §1, §2

[12] = 100 ppm, contact time 60 mins. at 20° C.
[13] = 100 ppm, contact time 120 mins. at 20° C.
[14] = 500 ppm, contact time 60 mins. at 20° C.
[15] = 500 ppm, contact time 120 mins. at 20° C.
[16] = 750 ppm, contact time 60 mins. at 20° C.
[17] = 750 ppm, contact time 120 mins. at 20° C.

CCCCNC(=O)OCC#CI [IPBC, 3-Iodo-2-propinyl butyl carbamate]
fungistatic activity (overall) [1]: very good fungistatic activity | growth after contact (fungicidal activity) [2, 12]: 60 mins. + | growth after contact (fungicidal activity) [2, 13]: 120 mins. + | growth after contact (fungicidal activity) [2, 14]: 60 mins. + | growth after contact (fungicidal activity) [2, 15]: 120 mins. + | growth after contact (fungicidal activity) [2, 16]: 60 mins. + | growth after contact (fungicidal activity) [2, 17]: 120 mins. + | growth after contact (fungicidal activity) [3, 12]: 60 mins. + | growth after contact (fungicidal activity) [3, 13]: 120 mins. + | growth after contact (fungicidal activity) [3, 14]: 60 mins. + | growth after contact (fungicidal activity) [3, 15]: 120 mins. + | growth after contact (fungicidal activity) [3, 16]: 60 mins. + | growth after contact (fungicidal activity) [3, 17]: 120 mins. + | growth after contact (fungicidal activity) [4, 12]: 60 mins. + | growth after contact (fungicidal activity) [4, 13]: 120 mins. + | growth after contact (fungicidal activity) [4, 14]: 60 mins. − | growth after contact (fungicidal activity) [4, 15]: 120 mins. − | growth after contact (fungicidal activity) [4, 16]: 60 mins. − | growth after contact (fungicidal activity) [4, 17]: 120 mins. − | growth after contact (fungicidal activity) [5, 12]: 60 mins. + | growth after contact (fungicidal activity) [5, 13]: 120 mins. + | growth after contact (fungicidal activity) [5, 14]: 60 mins. − | growth after contact (fungicidal activity) [5, 15]: 120 mins. − | growth after contact (fungicidal activity) [5, 16]: 60 mins. − | growth after contact (fungicidal activity) [5, 17]: 120 mins. − | growth after contact (fungicidal activity) [6, 12]: 60 mins. + | growth after contact (fungicidal activity) [6, 13]: 120 mins. + | growth after contact (fungicidal activity) [6, 14]: 60 mins. − | growth after contact (fungicidal activity) [6, 15]: 120 mins. − | growth after contact (fungicidal activity) [6, 16]: 60 mins. − | growth after contact (fungicidal activity) [6, 17]: 120 mins. − | inhibition zone ([7]; 100 ppm test solution): 3-5 mm | inhibiting effect evaluation ([7]; 100 ppm test solution): 0/0 | inhibition zone ([7]; 500 ppm test solution): 9-11 mm | inhibiting effect evaluation ([7]; 500 ppm test solution): 0/0 | inhibition zone ([7]; 750 ppm test solution): 10-12 mm | inhibiting effect evaluation ([7]; 750 ppm test solution): 0/0 | inhibiting effect evaluation ([8]; 100 ppm test solution): 1/1 | inhibition zone ([8]; 500 ppm test solution): 3-5 mm | inhibiting effect evaluation ([8]; 500 ppm test solution): 0/0 | inhibition zone ([8]; 750 ppm test solution): 3-5 mm | inhibiting effect evaluation ([8]; 750 ppm test solution): 0/0 | inhibition zone ([9]; 100 ppm test solution): 5-9 mm | inhibiting effect evaluation ([9]; 100 ppm test solution): 0/0 | inhibition zone ([9]; 500 ppm test solution): 11-14 mm | inhibiting effect evaluation ([9]; 500 ppm test solution): 0/0 | inhibition zone ([9]; 750 ppm test solution): 12-15 mm | inhibiting effect evaluation ([9]; 750 ppm test solution): 0/0 | inhibition zone ([10]; 100 ppm test solution): 1 mm | inhibiting effect evaluation ([10]; 100 ppm test solution): 0/0 | inhibition zone ([10]; 500 ppm test solution): 5-7 mm | inhibiting effect evaluation ([10]; 500 ppm test solution): 0/0 | inhibition zone ([10]; 750 ppm test solution): 5-7 mm | inhibiting effect evaluation ([10]; 750 ppm test solution): 0/0 | inhibition zone ([11]; 100 ppm test solution): 3-6 mm | inhibiting effect evaluation ([11]; 100 ppm test solution): 0/0 | inhibition zone ([11]; 500 ppm test solution): 12-15 mm | inhibiting effect evaluation ([11]; 500 ppm test solution): 0/0 | inhibition zone ([11]; 750 ppm test solution): 15-18 mm | inhibiting effect evaluation ([11]; 750 ppm test solution): 0/0
